Source: BindingDB's records for doi:10.1021/jm3016848 (Ikerchem, 2013)
pIC50: −log10 of the molar value.

Test: Inhibition of LFA-1/ICAM-1 interaction in mouse Lim51b cells assessed as PMA-induced adhesion to ICAM-1 expressing HSE cells measured per 10^5 cells after 30 mins by fluorometric microplate reader analysis

pIC50: 4.56
SMILES: CC[C@H](C)[C@H](OCc1ccccc1)[C@H]1[C@H]([N+](=O)[O-])[C@H](c2ccccc2)N[C@]1(C)C(=O)NCCC(=O)O
